Results: ChEMBL document CHEMBL1144549, “Preparation of secolycorines against acetylcholinesterase” (Bioorg Med Chem, 2007)

What follows are compounds tested against Acetylcholinesterase (Electrophorus electricus, UniProt O42275) (assay: Inhibition of eel AChE).
Acetylcholinesterase, sequence (O42275 whole entry): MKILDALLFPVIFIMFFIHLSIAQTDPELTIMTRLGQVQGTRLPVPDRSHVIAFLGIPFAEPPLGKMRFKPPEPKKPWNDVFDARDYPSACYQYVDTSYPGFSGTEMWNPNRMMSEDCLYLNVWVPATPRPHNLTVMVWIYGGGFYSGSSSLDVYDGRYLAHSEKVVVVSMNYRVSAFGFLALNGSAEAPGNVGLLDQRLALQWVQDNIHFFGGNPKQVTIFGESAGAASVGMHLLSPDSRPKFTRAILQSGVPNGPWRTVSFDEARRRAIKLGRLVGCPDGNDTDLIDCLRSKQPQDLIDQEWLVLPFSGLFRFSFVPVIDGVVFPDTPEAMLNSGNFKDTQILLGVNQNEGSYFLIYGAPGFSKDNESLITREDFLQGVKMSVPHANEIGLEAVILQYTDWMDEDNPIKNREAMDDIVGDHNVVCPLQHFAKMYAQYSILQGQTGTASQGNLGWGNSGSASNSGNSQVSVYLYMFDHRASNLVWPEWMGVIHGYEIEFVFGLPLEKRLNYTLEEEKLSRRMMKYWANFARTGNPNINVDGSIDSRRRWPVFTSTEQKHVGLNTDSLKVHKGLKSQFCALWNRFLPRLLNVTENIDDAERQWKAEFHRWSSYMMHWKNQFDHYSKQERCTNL
With `C=Cc1cccc2c1N(CCCCC)Cc1cc3c(cc1-2)OCO3` the IC50 was < 5 µM.
For `CCCCCCN1Cc2cc3c(cc2-c2cccc(CC)c21)OCO3`, the IC50 was < 5 µM.
For `CCc1cccc2c1N(CC)Cc1cc3c(cc1-2)OCO3`, the IC50 was 8.82 µM.
For `CCCCCN1Cc2cc3c(cc2-c2cccc(CC)c21)OCO3`, the IC50 was < 5 µM.
In the case of `C=Cc1cccc2c1N(CCC)Cc1cc3c(cc1-2)OCO3`, the IC50 is reported as 10.6 µM.
For `C=Cc1cccc2c1N(CC)Cc1cc3c(cc1-2)OCO3`, the IC50 was 8.35 µM.
`C=Cc1cccc2c1N(C)Cc1cc3c(cc1-2)OCO3` showed an IC50 of 2.89 µM.
`C=Cc1cccc2c1N(CCCC)Cc1cc3c(cc1-2)OCO3` was tested, and the IC50 was 2.66 µM.
`CCCN1Cc2cc3c(cc2-c2cccc(CC)c21)OCO3` was tested, and the IC50 was 9.98 µM.
`CCc1cccc2c1N(C)Cc1cc3c(cc1-2)OCO3` was tested, and the IC50 was 3 µM.
Compound `CCCCN1Cc2cc3c(cc2-c2cccc(CC)c21)OCO3` has an IC50 of 5.44 µM.
For `C=Cc1cccc2c1N(CCCCCC)Cc1cc3c(cc1-2)OCO3`, the IC50 was < 5 µM.
